Reference: patent US20040121941A1, “Novel inhibitors of prenylated pyrophosphate consuming enzymes” (priority 1999, published 2004)

Biological target: T1, protein:geranylgeranyl transferase-1 (PGGT-1) (Bos taurus, UniProt Q5EAD5)
T1 construct: A crude PGGT-1 preparation was isolated from bovine brain; from tissue; host or cells: bovine brain
Assay: Protein:geranylgeranyl transferase-1 (PGGT-1) activity assay, [3H]-GGPP and sepharose-coupled peptide pepCsep
Type: biochemical
Conditions: PGGT activity in % of control (without analogue), bovine brain enzyme, Table I
Description: PFT activity was determined using a C-terminal peptide of pre-p21^N-ras coupled to sepharose beads as substrate (pepAsep) as described previously (Cohen et al. Biochem. Pharmacol. 57 (1999), 365-373). The experimental conditions (25 μL reaction mixture) were as follows: 80 pmol/25 μL sepharose-coupled peptide, 0.7 μM of [^3H]-FPP (American Radiolabeled Chemicals Inc.; specific radioactivity 15 Ci/mmol) and 13 μL of rat brain enzyme preparation. Incubation was performed at 37° C. for 30 min. For the determination of IC50 values of the FPP analogues, the assay was performed three times in the presence of different concentrations of compound 5 (example 1) in duplicate. Determination of PGGT-1 activity was performed in a similar manner as described for PFT activity and has also been described previously (Cohen et al. Biochem. Pharmacol. 57 (1999), 365-373). […] The experimental conditions were as follows: 25 μL incubation mixture contained 2.5 μL (1 nmol) pepCsep, 1 μM [^3H]-GGPP (American Radiolabeled Chemicals Inc.; specific radioactivity 15 Ci/mmol), 3 μL of bovine brain enzyme preparation, 50 μM ZnCl2, 0.5 mM MgCl2, 1 mM dithiothreitol, 0.004% Triton X-100, 50 mM Tris-HCl (pH 7.4). […]
The radioactivity bound to the sepharose was strongly dependent on the presence of the cysteine residue in pepCsep and the reaction was linear up to 40 min and up to 5 μL of the enzyme preparation. […]

## [Bis(benzyloxycarbonyl)lysyl]-[ε-aminocaproyl]-[β-(nitrophenylaminocarbonyl)-β-alanyl]-[phosphoserine] [compound 378]
Compound at 10 μM
  relative activity at 10 μM: 36 ± 9%
Compound at 100 μM
  relative activity at 100 μM: 28 ± 5%
